Experimental data from patent US12655174B2, “Adenosine A3 receptor agonists, preparation methods and uses thereof” (ZHEJIANG VIMGREEN PHARMACEUTICALS, LTD., priority 2020, dated 2026).

Experiment: Pharmacokinetic test of compound in SD rat
Assay type: in vivo
Settings: SD rats, intragastric administration (IG), cassette dosing
Protocol: Example 28: Pharmacokinetic Test of Compound in SD Rat
The animal species used in this experiment were SD rats. There were 3 animals per group. The rats were dosed in cassette format, i.e., multiple (1-6) different compounds were dosed simultaneously to the same group of the SD rats. The vehicle used for the drug was 5% DMSO+5% Solutl+90% ([…] methylcellulose M450), and the administration route was intragastric administration (IG).

Row | Structure (SMILES) | AUC_D [kg·ng·h/mL/mg]
1 | [2H]C([2H])([2H])NC(=O)[C@H]1O[C@@H](n2cnc3c(NCc4cccc(Br)c4)nc(-c4cncc(Cl)c4)nc32)[C@H](O)[C@@H]1O [compound 248, (2S,3S,4R,5R)-5-(6-((3-bromobenzyl)amino)-2-(5-chloropyridin-3-yl)-9H-purin-9-yl)-3,4-dihydroxyl-N-(methyl-d3)tetrahydrofuran-2-carboxamide] | 3298.00
2 | [2H]C([2H])([2H])NC(=O)[C@H]1O[C@@H](n2cnc3c(N[C@H](C)c4ccccc4)nc(-c4cncc(Cl)c4)nc32)[C@H](O)[C@@H]1O [compound 251] | 610.00
3 | [2H]C([2H])([2H])NC(=O)[C@H]1O[C@@H](n2cnc3c(NCc4cccc(OC)c4)nc(-c4cncc(Cl)c4)nc32)[C@H](O)[C@@H]1O [compound 265, (2S,3S,4R,5R)-5-(2-(5-chloropyridin-3-yl)-6-(3-methoxybenzylamino)-9H-purin-9-yl)-3,4-dihydroxyl-N-(methyl-d3)-tetrahydrofuran-2-carboxamide] | 764.50
4 | [2H]C([2H])([2H])NC(=O)[C@H]1O[C@@H](n2cnc3c(NCc4cccc(C)n4)nc(-c4cncc(Cl)c4)nc32)[C@H](O)[C@@H]1O [compound 271, (2S,3S,4R,5R)-5-(2-(5-chloropyridin-3-yl)-6-((6-methylpyridin-2-yl)methylamino)-9H-purin-9-yl)-3,4-dihydroxyl-N-(methyl-d3)-tetrahydrofuran-2-carboxamide] | 1131.18
5 | [2H]C([2H])([2H])NC(=O)[C@H]1O[C@@H](n2cnc3c(NCCOC)nc(-c4cncc(Cl)c4)nc32)[C@H](O)[C@@H]1O [compound 288, (2S,3S,4R,5R)-5-(2-(5-chloropyridin-3-yl)-6-((2-methoxyethyl)amino)-9H-purin-9-yl)-3,4-dihydroxyl-N-(methyl-d3)-tetrahydrofuran-2-carboxamide] | 118.00
6 | [2H]C([2H])([2H])NC(=O)[C@H]1O[C@@H](n2cnc3c(NC(C)C)nc(-c4cncc(Cl)c4)nc32)[C@H](O)[C@@H]1O [compound 319, (2S,3S,4R,5R)-5-(2-(5-chloropyridin-3-yl)-6-(isopropylamino)-9H-purin-9-yl)-3,4-dihydroxyl-N-(methyl-d3)tetrahydrofuran-2-carboxamide] | 74.00
7 | [2H]C([2H])([2H])NC(=O)[C@H]1O[C@@H](n2cnc3c(NCc4cccc(F)c4)nc(-c4cncc(Cl)c4)nc32)[C@H](O)[C@@H]1O [compound 321] | 1167.46
8 | [2H]C([2H])([2H])NC(=O)[C@H]1O[C@@H](n2cnc3c(OCc4ccccc4)nc(-c4cncc(Cl)c4)nc32)[C@H](O)[C@@H]1O [compound 323, (2S,3S,4R,5R)-5-(6-(benzyloxy)-2-(5-chloropyridin-3-yl)-9H-purin-9-yl)-3,4-dihydroxyl-N-(methyl-d3)-tetrahydrofuran-2-formamide] | 1309.00

Now from value to compound:

Row | AUC_D [kg·ng·h/mL/mg] | Structure (SMILES)
9 | 2137.00 | [2H]C([2H])([2H])NC(=O)[C@H]1O[C@@H](n2cnc3c(NCc4cccc(I)c4)nc(-c4cncc(Cl)c4)nc32)[C@H](O)[C@@H]1O [compound 250, (2S,3S,4R,5R)-5-(2-(5-chloropyridin-3-yl)-6-((3-iodobenzyl)amino)-9H-purin-9-yl)-3,4-dihydroxyl-N-(methyl-d3)tetrahydrofuran-2-carboxamide]
10 | 532.00 | [2H]C([2H])([2H])NC(=O)[C@H]1O[C@@H](n2cnc3c(N[C@@H](C)c4ccccc4)nc(-c4cncc(Cl)c4)nc32)[C@H](O)[C@@H]1O [compound 252]
11 | 299.00 | [2H]C([2H])([2H])NC(=O)[C@H]1O[C@@H](n2cnc3c(NCc4cscn4)nc(-c4cncc(Cl)c4)nc32)[C@H](O)[C@@H]1O [compound 253, (2S,3S,4R,5R)-5-(2-(5-chloropyridin-3-yl)-6-((thiazol-4-ylmethyl)amino)-9H-purin-9-yl)-3,4-dihydroxyl-N-(methyl-d3)tetrahydrofuran-2-carboxamide]
12 | 96.00 | [2H]C([2H])([2H])NC(=O)[C@H]1O[C@@H](n2cnc3c(NCc4cocn4)nc(-c4cncc(Cl)c4)nc32)[C@H](O)[C@@H]1O [compound 257, (2S,3S,4R,5R)-5-(2-(5-chloropyridin-3-yl)-6-((oxazol-4-ylmethyl)amino)-9H-purin-9-yl)-3,4-dihydroxyl-N-(methyl-d3)tetrahydrofuran-2-carboxamide]
13 | 82.98 | [2H]C([2H])([2H])NC(=O)[C@H]1O[C@@H](n2cnc3c(NCc4ccc(OC)cc4)nc(-c4cncc(Cl)c4)nc32)[C@H](O)[C@@H]1O [compound 267, (2S,3S,4R,5R)-5-(2-(5-chloropyridin-3-yl)-6-(4-methoxybenzylamino)-9H-purin-9-yl)-3,4-dihydroxyl-N-(methyl-d3)-tetrahydrofuran-2-carboxamide]
14 | 175.00 | [2H]C([2H])([2H])NC(=O)[C@H]1O[C@@H](n2cnc3c(NCCC)nc(-c4cncc(Cl)c4)nc32)[C@H](O)[C@@H]1O [compound 285, (2S,3S,4R,5R)-5-(2-(5-chloropyridin-3-yl)-6-(propylamino)-9H-purin-9-yl)-3,4-dihydroxyl-N-(methyl-d3)-tetrahydrofuran-2-carboxamide]
15 | 610.66 | CNC(=O)[C@H]1O[C@@H](n2cnc3c(NCc4cccc(C)n4)nc(-c4cncc(C)c4)nc32)[C@H](O)[C@@H]1O [compound 295, (2S,3S,4R,5R)-3,4-dihydroxyl-N-methyl-5-(6-(((6-methylpyridin-2-yl)methyl)amino)-2-(5-methylpyridin-3-yl)-9H-purin-9-yl)tetrahydrofuran-2-carboxamide]
16 | 97.03 | CNC(=O)[C@H]1O[C@@H](n2cnc3c(NCc4ccc(F)c(F)c4)nc(-c4cncc(Cl)c4)nc32)[C@H](O)[C@@H]1O [compound 322, (2S,3S,4R,5R)-5-(2-(5-chloropyridin-3-yl)-6-((3,4-difluorobenzyl)amino)-9H-purin-9-yl)-3,4-dihydroxyl-N-methyltetrahydrofuran-2-carboxamide]
17 | 78.00 | CCNC(=O)[C@H]1O[C@@H](n2cnc3c(N)nc(-c4cncc(Cl)c4)nc32)[C@H](O)[C@@H]1O [compound 324, (2S,3S,4R,5R)-5-(6-amino-2-(5-chloropyridin-3-yl)-9H-purin-9-yl)-N-ethyl-3,4-dihydroxyltetrahydrofuran-2-formamide]
